Among the data in US20240066027A1 (DOMAIN THERAPEUTICS, priority 2020, published 2024) are melting point and IC50 values, retold here.

Data set [1] addresses T1, human PAR-2 (hPAR-2) receptor expressed in HEK-293 T cells in an endogenous manner (Homo sapiens, UniProt P55085).
T1 construct: human PAR-2 (hPAR-2) receptor expressed in HEK-293 T cells in an endogenous manner; endogenous in cells; host or cells: HEK-293 T cells
T1 sequence (P55085 26-397): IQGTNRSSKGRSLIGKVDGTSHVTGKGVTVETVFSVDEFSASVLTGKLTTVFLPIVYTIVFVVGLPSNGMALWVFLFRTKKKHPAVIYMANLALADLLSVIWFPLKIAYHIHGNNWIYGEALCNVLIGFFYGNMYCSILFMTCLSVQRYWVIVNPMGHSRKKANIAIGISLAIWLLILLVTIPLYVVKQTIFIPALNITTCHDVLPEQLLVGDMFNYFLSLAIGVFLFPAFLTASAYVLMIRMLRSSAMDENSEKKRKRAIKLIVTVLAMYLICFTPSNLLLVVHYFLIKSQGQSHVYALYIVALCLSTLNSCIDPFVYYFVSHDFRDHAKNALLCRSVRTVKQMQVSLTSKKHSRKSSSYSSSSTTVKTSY
Kind of data set: In vitro human PAR-2 functional antagonist activity using calcium assays (Fluo4AM, FLIPR Tetra). To be noted: HEK-293 T cells stimulated by an EC80 of the 2-Furoyl-LIGRLO-NH2 peptide after 10 min incubation with compound; 20 concentrations, duplicate, two independent experiments. The format is cell-based. An outline of the steps: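 Fluo4AM-loaded HEK-293 T cells were exposed to compound for 10 min to read agonist effect. They were then stimulated with an EC80 of 2-Furoyl-LIGRLO-NH2 and intracellular calcium was recorded for 5 more min on FLIPR. Antagonism was scored against buffer basal and EC80 agonist-alone signals.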

Where only a bound is given, the exact number is not on record here.

The melting point is the temperature, or range, at which the solid turns liquid. The IC50 is the midpoint of a concentration-inhibition curve. For the compound `Cc1ccc(-c2cn(CC(C)C)c3nc(C(=O)N4CCNC(=O)C4(C)C)ccc23)cc1` [Example 51, 4-[1-isobutyl-3-(p-tolyl)pyrrolo[2,3-b]pyridine-6-carbonyl]-3,3-dimethyl-piperazin-2-one], the melting point lay within 207 to 212 °C. Moreover, the half-maximal inhibitory concentration (IC50) in data set [1] was 0.02 to 10 µM.

Consider `CC(C)Cn1cc(-c2cc(F)cc(F)c2)c2ccc(C(=O)N3CCNC(=O)C3(C)C)nc21` [Example 108, 4-(3-(3,5-difluorophenyl)-1-isobutyl-1H-pyrrolo[2,3-b]pyridine-6-carbonyl)-3,3-dimethylpiperazin-2-one], for which the melting point was 165 to 170 °C. Also, the IC50 in data set [1] lay within 0.02 to 10 µM.

Consider `CC(C)Cn1cc(-c2ccc(F)cc2)c2ccc(C(=O)N3CCNC(=O)C3(C)C)nc21` [Example 56, 4-[1-isobutyl-3-[4-fluorophenyl]pyrrolo[2,3-b]pyridine-6-carbonyl]-3,3-dimethyl-piperazin-2-one], for which the melting point fell in the range of 192 to 194 °C. In addition, the 50% inhibitory concentration (IC50) in data set [1] fell in the range of 0.02 to 10 µM.

In turn, `CC(C)Cn1cc(-c2ccc(C(F)(F)F)cc2)c2ccc(C(=O)N3CCNC(=O)C3(C)C)nc21` [Example 55, 4-[1-isobutyl-3-[4-(trifluoromethyl)phenyl]pyrrolo[2,3-b]pyridine-6-carbonyl]-3,3-dimethyl-piperazin-2-one] came in with a melting point of 216 to 218 °C. The half-inhibitory concentration (IC50) in data set [1] was 0.02 to 10 µM.

Take `CC(C)Cn1cc(-c2cccc(OC(F)(F)F)c2)c2ccc(C(=O)N3CCNC(=O)C3(C)C)nc21` [Example 57, 4-[1-isobutyl-3-[3-(trifluoromethoxy)phenyl]pyrrolo[2,3-b]pyridine-6-carbonyl]-3,3-dimethyl-piperazin-2-one]: the melting point was 202 to 204 °C. For the same compound, the 50% inhibitory concentration (IC50) in data set [1] lay in the range of 0.02 to 10 µM.

In the case of `CC(C)Cn1cc(-c2ccc(C(F)(F)F)nc2)c2ccc(C(=O)N3CCNC(=O)C3(C)C)nc21` [Example 43, 4-(1-isobutyl-3-(6-(trifluoromethyl)pyridin-3-yl)-1H-pyrrolo[2,3-b]pyridine-6-carbonyl)-3,3-dimethylpiperazin-2-one], the melting point is > 250 °C. Besides, the IC50 in data set [1] was in the range of 0.02 to 10 µM.

On to `CC(C)Cn1cc(C2CCCCC2)c2ccc(C(=O)N3CCNC(=O)C3(C)C)nc21` [Example 48, 4-(3-cyclohexyl-1-isobutyl-1H-pyrrolo[2,3-b]pyridine-6-carbonyl)-3,3-dimethylpiperazin-2-one], for which the melting point was 226 to 229 °C. For the same compound, the IC50 in data set [1] lay within 0.02 to 10 µM.

As to `Cc1ccccc1-c1cn(CC(C)C)c2nc(C(=O)N3CCNC(=O)C3(C)C)ccc12` [Example 52, 4-[1-isobutyl-3-(o-tolyl)pyrrolo[2,3-b]pyridine-6-carbonyl]-3,3-dimethyl-piperazin-2-one], the melting point lay within 225 to 230 °C. The IC50 in data set [1] lay in the range of 0.02 to 10 µM.

`CC(C)Cn1cc(-c2ccc(N(C)C)nc2)c2ccc(C(=O)N3CCNC(=O)C3(C)C)nc21` [Example 109, 4-(3-(6-(dimethylamino)pyridin-3-yl)-1-isobutyl-1H-pyrrolo[2,3-b]pyridine-6-carbonyl)-3,3-dimethylpiperazin-2-one] returned a melting point of 205 to 210 °C. Further, in data set [1], the IC50 was in the range of 0.02 to 10 µM.

Regarding `COc1ccc(-c2cn(CC(C)C)c3nc(C(=O)N4CCNC(=O)C4(C)C)ccc23)cc1` [Example 111, 4-(1-isobutyl-3-(4-methoxyphenyl)-1H-pyrrolo[2,3-b]pyridine-6-carbonyl)-3,3-dimethylpiperazin-2-one], the melting point is 195 to 200 °C. In addition, in data set [1], the IC50 lay within 0.02 to 10 µM.

Regarding `COC(=O)c1c(C)cc(N2CCN(C(=O)c3ccc4c(n3)c(C(C)(C)C)nn4-c3ccc(Cl)c(F)c3)C(C)(C)C2)nc1C` [Example 58, methyl 6-(4-(3-(tert-butyl)-1-(4-chloro-3-fluorophenyl)-1H-pyrazolo[4,3-b]pyridine-5-carbonyl)-3,3-dimethylpiperazin-1-yl)-2,4-dimethylnicotinate], in data set [1], the IC50 is > 10 µM.

Regarding `CC(C)Cc1nn(-c2ccc(Cl)c(F)c2)c2ccc(C(=O)N3CCC4(CC3)C(=O)NCN4c3ccccc3)nc12` [Example 94, 8-(1-(4-chloro-3-fluorophenyl)-3-isobutyl-1H-pyrazolo[4,3-b]pyridine-5-carbonyl)-1-phenyl-1,3,8-triazaspiro[4.5]decan-4-one], the half-inhibitory concentration (IC50) in data set [1] is > 10 µM.

On to `CC(C)(C)n1cc(-c2ccc(Cl)c(F)c2)c2ccc(C(=O)N3CC[C@H]4CNC(=O)[C@H]43)nc21` [Example 15, (3aS,6aS)-1-(1-(tert-butyl)-3-(4-chloro-3-fluorophenyl)-1H-pyrrolo[2,3-b]pyridine-6-carbonyl)hexahydropyrrolo[3,4-b]pyrrol-6(1H)-one], for which, in data set [1], the concentration for half-maximal inhibition (IC50) lay in the range of 0.02 to 10 µM.

Turning to `CC(C)(C(N)=O)c1ccnc(N2CCN(C(=O)c3ccc4c(-c5ccc(Cl)c(F)c5)cn(C(C)(C)C)c4n3)C(C)(C)C2)c1` [Example 177, 2-(2-(4-(1-(tert-butyl)-3-(4-chloro-3-fluorophenyl)-1H-pyrrolo[2,3-b]pyridine-6-carbonyl)-3,3-dimethylpiperazin-1-yl)pyridin-4-yl)-2-methylpropanamide], the IC50 in data set [1] was < 0.02 µM.

On to `CC1(C)C(=O)NCCN1C(=O)c1ccc2c(-c3ccc(Cl)c(F)c3)cn(CC(F)(F)F)c2n1` [Example 31, 4-(3-(4-chloro-3-fluorophenyl)-1-(2,2,2-trifluoroethyl)-1H-pyrrolo[2,3-b]pyridine-6-carbonyl)-3,3-dimethylpiperazin-2-one], for which the IC50 in data set [1] is 0.02 to 10 µM.

Regarding `CC(C)(C)n1cc(-c2ccc(Cl)c(F)c2)c2ccc(C(=O)N3CC4(CCOC4)C3)nc21` [Example 9, (1-(tert-butyl)-3-(4-chloro-3-fluorophenyl)-1H-pyrrolo[2,3-b]pyridin-6-yl)(6-oxa-2-azaspiro[3.4]octan-2-yl)methanone], the IC50 in data set [1] is > 10 µM.

For the compound `CC(C)(C)c1nn(-c2ccc(Cl)c(F)c2)c2ncc(C(=O)N3CCNC(=O)C3(C)C)cc12` [Example 80, 4-(3-(tert-butyl)-1-(4-chloro-3-fluorophenyl)-1H-pyrazolo[3,4-b]pyridine-5-carbonyl)-3,3-dimethylpiperazin-2-one], the concentration for half-maximal inhibition (IC50) in data set [1] was 0.02 to 10 µM.

In the case of `COC(=O)C1CCN(C(=O)c2ccc3c(-c4ccc(Cl)c(F)c4)cn(C(C)(C)C)c3n2)CC1(C)C` (stereo not drawn) [Example 21, methyl 1-(1-(tert-butyl)-3-(4-chloro-3-fluorophenyl)-1H-pyrrolo[2,3-b]pyridine-6-carbonyl)-3,3-dimethylpiperidine-4-carboxylate], the IC50 in data set [1] lay within 0.02 to 10 µM.

Turning to `Cc1nn(-c2ccc(Cl)c(F)c2)c2ccc(C(=O)N3CCNC(=O)C3(C)C)nc12` [Example 71, 4-(1-(4-chloro-3-fluorophenyl)-3-methyl-1H-pyrazolo[4,3-b]pyridine-5-carbonyl)-3,3-dimethylpiperazin-2-one], in data set [1], the IC50 is 0.02 to 10 µM.

In the case of `COCC(C)(C)n1cc(-c2ccc(Cl)c(F)c2)c2ccc(C(=O)N3CCN(c4cc(C)c(C(=O)O)c(C)n4)CC3(C)C)nc21` [Example 152, 6-(4-(3-(4-chloro-3-fluorophenyl)-1-(1-methoxy-2-methylpropan-2-yl)-1H-pyrrolo[2,3-b]pyridine-6-carbonyl)-3,3-dimethylpiperazin-1-yl)-2,4-dimethylnicotinic acid], the IC50 in data set [1] was < 0.02 µM.
